Measurements as given in patent publication US10183011B2, “Anti-depression compounds” (Board of Regents of the University of Texas System, priority 2009, dated 2019).
“Also recorded” adds a separate entry of the source. Where two headings read alike, the source gives them in different places.

Legend:
H1 histamine receptor = H1 histamine receptor (Homo sapiens, UniProt P35367); assay: Binding to the H1 histamine receptor
Protocol: Example 45 Compound and Dimebon were tested for binding to the H1 histamine receptor.

aged Fisher 344 rats = assay: Aged rats: hippocampal neurogenesis, Morris water maze, apoptosis, body weight; assay type: in vivo, rat (Fisher 344)
Protocol: FIG. 20A, FIG. 20B, FIG. 20C, FIG. 20D and FIG. 20E: Effect of Example 45 Compound in aged rats. (FIG. 20A) Example 45 Compound (20 mg/kg/d, i.p.) and BrdU (50 mg/kg, i.p.) were administered daily for 7 days to 12-18 month old Fisher 344 rats (n=4 in each group). P7C3 promoted neural precursor cell proliferation by roughly 5 fold compared to vehicle. (*p<0.001, Students t test). […] These micrographs were taken at the same magnification. Scale bar=[…]. Data are expressed as mean+/−SEM. […] Data are expressed as mean+/−SEM. […] Data are expressed as mean+/−SEM.
Many more of the BrdU-labeled cells were noted to have migrated into the granular layer in Example 45 Compound-treated rats in comparison to vehicle treated animals, consistent with their functional incorporation into the dentate gyrus as properly wired neurons. The scale bar represents […]. […] The scale bar represents […]. […] In all graphs data are expressed as mean±SEM.
It was first evaluated whether Example 45 Compound would enhance hippocampal neurogenesis in aged rats as it does in adult mice. Rats were injected with a daily, IP dose of either […] of Example 45 Compound or vehicle, coinjected with a daily dose of BrdU, and then sacrificed after 7 days for immunohistochemistry. […] Having observed proneurogenic efficacy of Example 45 Compound in this short term assay, it was then tested whether prolonged administration of Example 45 Compound might ameliorate age-related decline in cognition by subjecting 18-month-old rats to daily administration of either […] of Example 45 Compound or vehicle only for 2 months. Animals of both groups were further subjected to weekly IP administration of BrdU (50 mg/kg) for later immunohistochemical measurements of hippocampal neurogenesis. As a control, both Example 45 Compound- and vehicle-treated groups were confirmed to display equal ability to physically participate in the task, and learn the task, as shown by decreased latency times to find the hidden platform over the 5 day training period, both before and after 2 months of treatment (FIG. 20B). Moreover, neither swim speed (FIG. 20C) nor locomotor activity (FIG. 20D) varied with age or treatment paradigm.
After 2 months of compound or vehicle administration, cognitive ability was assessed blind to treatment group by removing the goal platform. Animals of the Example 45 Compound-treated group retained a statistically significant improvement in ability to navigate to the region of the missing platform, as evidenced by performance in the probe test.
After behavioral testing, animals were sacrificed for immunohistochemical detection of BrdU and CCSP3. […] Next it was tested whether Example 45 Compound-mediated preservation of body weight in aged rats operates via central or peripheral modes of action.

[1] = Brain and blood levels three weeks after MPTP administration (LC/MS/MS); assay type: in vivo, mouse (C57BL/6); conditions: 21 days i.p. dosing after MPTP
Protocol: Data are expressed as mean±SEM. Three animals were tested per group.
C57BL/6 mice treated with MPTP and then dosed IP with compound for 21 days were utilized for pharmacokinetic (PK) analysis of total P7C3, P7C3A20 and Dimebon levels in plasma and brain. In a separate set of experiments designed to test the ability of new P7C3 analogs to cross the blood brain barrier, C57BL/6 mice were dosed IP a single time with compounds at 10 mg/kg. P7C3, P7C3A20 and Dimebon were formulated for administration as described above. Analogs were formulated in 5% Dextrose, pH 7.4, containing 5% DMSO and 10% Cremophor EL with the exception of P7C3-S8 which required 10% DMSO and 20% Cremophor EL dissolved in 5% Dextrose for delivery. Six hours after the final compound dose, animals were given an inhalation overdose of CO2 and whole blood and brain collected. Plasma was prepared from blood and was stored along with the brain tissue at −80° C. until analysis. […] The supernatant was then analyzed by LC/MS/MS. […] The limit of quantitation (LOQ) was defined as the lowest concentration at which back calculation yielded a concentration within 20% of the theoretical value and above the LOD signal. […] Compound levels were monitored by LC/MS/MS using an AB/Sciex (Framingham, Mass.) 3200 Qtrap mass spectrometer coupled to a Shimadzu (Columbia, Md.) Prominence LC.

Sequence of H1 histamine receptor (P35367 whole entry): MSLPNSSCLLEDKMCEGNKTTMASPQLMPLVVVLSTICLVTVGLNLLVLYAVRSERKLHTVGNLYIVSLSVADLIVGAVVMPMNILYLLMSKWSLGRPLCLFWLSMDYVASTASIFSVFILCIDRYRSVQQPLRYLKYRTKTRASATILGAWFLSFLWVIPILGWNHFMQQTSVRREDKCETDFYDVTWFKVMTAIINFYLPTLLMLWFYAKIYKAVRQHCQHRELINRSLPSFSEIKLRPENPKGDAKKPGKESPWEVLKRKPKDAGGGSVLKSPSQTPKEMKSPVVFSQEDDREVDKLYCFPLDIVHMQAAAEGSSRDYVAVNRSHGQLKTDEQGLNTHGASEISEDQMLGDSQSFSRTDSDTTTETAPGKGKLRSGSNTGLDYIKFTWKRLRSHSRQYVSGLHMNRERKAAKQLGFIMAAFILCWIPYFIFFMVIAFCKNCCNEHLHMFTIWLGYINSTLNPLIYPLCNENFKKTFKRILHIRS

OC(CNc1ccccc1)Cn1c2ccc(Br)cc2c2cc(Br)ccc21 (stereo not drawn) [Example 45 Compound]
IC50 (H1 histamine receptor; both enantiomers): > 10 µM | apoptotic cells in the dentate gyrus (aged Fisher 344 rats; after 2 months of treatment): statistically significant reduction in the number of CCSP3-positive cells | level of BrdU-positive neurons in the dentate gyrus versus vehicle (aged Fisher 344 rats; after 2 months of treatment): 3 fold | postfasting blood glucose levels (aged Fisher 344 rats; aged rats): had no effect on postfasting blood glucose levels | body weight with aging (aged Fisher 344 rats; aged rats, 2 months of treatment): helped rats maintain stable body weight with aging | increase in BrdU labeling in the dentate gyrus relative to vehicle (aged Fisher 344 rats; daily IP for 7 days, aged rats): 500% | crossings of the location previously containing the platform (aged Fisher 344 rats; probe test after 2 months of treatment): significantly more often than vehicle-treated rats | percentage of time in the general goal area (quadrant previously containing the platform) (aged Fisher 344 rats; probe test after 2 months of treatment, vehicle 28.1%±2.6%): 35.5%±2.2%

OC(CNc1ccccc1)Cn1c2ccc(Br)cc2c2cc(Br)ccc21 (stereo not drawn) [Example P7C3]
neural precursor cell proliferation (BrdU) compared to vehicle (aged Fisher 344 rats; daily i.p. for 7 days, 12-18 month old Fisher 344 rats): roughly 5 fold

COc1cccc(NCC(F)Cn2c3ccc(Br)cc3c3cc(Br)ccc32)c1 (stereo not drawn) [Example P7C3A20, N-(3-(3,6-dibromo-9H-carbazol-9-yl)-2-fluoropropyl)-3-methoxyaniline]
brain accumulation relative to other compound [1]: less than one-tenth the concentration of P7C3; also recorded: about one-tenth

Cc1ccc2c(c1)c1c(n2CCc2ccc(C)nc2)CCN(C)C1 [Dimebon, 2,3,4,5-Tetrahydro-2,8-dimethyl-5-(2-(6-methyl-3-pyridyl)ethyl)-1H-pyrido(4,3-b)indole, reference compound]
IC50 (H1 histamine receptor): < 0.1 µM | brain accumulation relative to other compound [1]: comparable levels of brain accumulation to P7C3A20; also recorded: equivalent to P7C3
